The target of this test is human P2X3 receptor (Homo sapiens (Human), UniProt P56373). Nature of the test: Evaluation of human P2X3 receptor inhibitory activity (Fluo-3 calcium fluorescence, FDSS 3000, ATP stimulation).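 Further: stimulus was 50 nM ATP with fluorescence followed for 3 min, and the response per well was peak post-ATP fluorescence divided by the reading at measurement start.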 As to conditions: C6BU-1 cells stably expressing human P2X3 receptor. In kind it is cell-based.

One may read the pIC50 as the negative decadic logarithm of the IC50, by convention in mol/L.

The structures appear in SMILES notation. pIC50: −log10 of the molar value.

human P2X3 receptor, sequence (P56373 whole entry): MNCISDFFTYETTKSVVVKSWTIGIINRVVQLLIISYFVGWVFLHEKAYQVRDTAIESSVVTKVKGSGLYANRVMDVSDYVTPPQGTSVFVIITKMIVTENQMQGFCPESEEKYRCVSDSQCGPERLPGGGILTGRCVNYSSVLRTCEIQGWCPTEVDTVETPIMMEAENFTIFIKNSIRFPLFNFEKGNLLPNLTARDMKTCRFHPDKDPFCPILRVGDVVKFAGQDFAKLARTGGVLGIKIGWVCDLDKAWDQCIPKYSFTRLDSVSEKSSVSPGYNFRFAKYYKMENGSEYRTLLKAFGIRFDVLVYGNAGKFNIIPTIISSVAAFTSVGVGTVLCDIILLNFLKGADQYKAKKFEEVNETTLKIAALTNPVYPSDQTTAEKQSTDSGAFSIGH

With `Cc1cc(/N=c2\[nH]c(=O)n(CC[C@H](NC(=O)OC(C)(C)C)C(=O)O)c(=O)n2Cc2ccc(Cl)cc2)ccc1OC(C)C` [Compound I-0732, (S)-1-(4-chlorobenzyl)-3-(3-t-butoxycarbonylamino-3-hydroxycarbonylpropyl)-6-(3-mehyl-4-isopropoxyphenylimino)-1,3,5-triazinane-2,4-dion], the pIC50 is 7.39.
With `C[C@@H](Cn1c(=O)[nH]/c(=N\c2ccc(OCCO)cc2)n(Cc2ccc(Cl)cc2)c1=O)C(=O)O` [Compound I-0733] the figure was 6.54; with `CCOC(=O)/C(Cn1c(=O)[nH]/c(=N\c2ccc(OC(C)C)c(F)c2)n(Cc2ccc(Cl)cc2)c1=O)=N/OC` [Compound I-0735, 1-(4-chlorobenzyl)-6-(3-fluoro-4-isopropoxyphenylimino)-3-(2-ethoxycarbonyl-2-methoxyiminoethyl)-1,3,5-triazinane-2,4-dion], 8.15.
With `Cc1cc(/N=c2\[nH]c(=O)n(CC[C@H](N)C(=O)O)c(=O)n2Cc2ccc(Cl)cc2)ccc1OC(C)C` [Compound I-0736, (S)-1-(4-chlorobenzyl)-3-(3-amino-3-hydroxycarbonylpropyl)-6-(3-mehyl-4-isopropoxyphenylimino)-1,3,5-triazinane-2,4-dion], the pIC50 is 6.88.
With `CO/N=C(\Cn1c(=O)[nH]/c(=N\c2ccc(OC(C)C)c(F)c2)n(Cc2ccc(Cl)cc2)c1=O)C(=O)O` [Compound I-0737, 1-(4-chlorobenzyl)-6-(3-fluoro-4-isopropoxyphenylimino)-3-(2-hydroxycarbonyl-2-methoxyiminoethyl)-1,3,5-triazinane-2,4-dion] the figure was 6.85; with `COC(=O)[C@@H](C)Cn1c(=O)[nH]/c(=N\c2ccc(OCC(F)F)c(C)c2)n(Cc2ccc(Cl)cc2)c1=O` [Compound I-0738], 7.72; with `CC(C)Oc1ccc(/N=c2\[nH]c(=O)n(CC(=O)N3CCOCC3)c(=O)n2Cc2ccc(Cl)cc2)cc1Cl` [Compound I-0739], 7.54.
For `CC(C)Oc1ccc(/N=c2\[nH]c(=O)n(CC(=O)N3CCN(C(=O)OC(C)(C)C)CC3)c(=O)n2Cc2ccc(Cl)cc2)cc1Cl` [Compound I-0740], the pIC50 was 6.66.
For `Cc1cc(/N=c2\[nH]c(=O)n(C[C@H](C)C(=O)O)c(=O)n2Cc2ccc(Cl)cc2)ccc1OCC(F)F` [Compound I-0741], the pIC50 was 7.30.
With `CC(C)Oc1ccc(/N=c2\[nH]c(=O)n(CC(=O)N3CCNCC3)c(=O)n2Cc2ccc(Cl)cc2)cc1Cl` [Compound I-0742] the figure was 7.42; with `CCCOc1ccc(/N=c2\[nH]c(=O)n(C[C@H](C)C(=O)OC)c(=O)n2Cc2ccc(Cl)cc2)cc1Cl` [Compound I-0743], 7.89; with `COC(=O)[C@@H](C)Cn1c(=O)[nH]/c(=N\c2ccc3c(c2)COCO3)n(Cc2ccc(Cl)cc2)c1=O` [Compound I-0744], 7.28.
On to `COCCOc1ccc(/N=c2\[nH]c(=O)n(C[C@H](C)C(=O)OC)c(=O)n2Cc2ccc(Cl)cc2)cc1` [Compound I-0745], for which the pIC50 was 6.90.
With `C[C@@H](Cn1c(=O)[nH]/c(=N\c2ccc3c(c2)COCO3)n(Cc2ccc(Cl)cc2)c1=O)C(=O)O` [Compound I-0746], the pIC50 is 6.85.
Then `CCCOc1ccc(/N=c2\[nH]c(=O)n(C[C@H](C)C(=O)O)c(=O)n2Cc2ccc(Cl)cc2)cc1Cl` [Compound I-0747], with 7.92; and `COCCOc1ccc(/N=c2\[nH]c(=O)n(C[C@H](C)C(=O)O)c(=O)n2Cc2ccc(Cl)cc2)cc1` [Compound I-0748], with 6.53.
In the case of `COC(=O)[C@@H](C)Cn1c(=O)[nH]/c(=N\c2ccc(OCC(C)C)cc2)n(Cc2ccc(Cl)cc2)c1=O` [Compound I-0749], the pIC50 is 7.57.
With `CC(C)COc1ccc(/N=c2\[nH]c(=O)n(C[C@H](C)C(=O)O)c(=O)n2Cc2ccc(Cl)cc2)cc1` [Compound I-0750] the figure was 7.66; with `CC[C@@H](C)Oc1ccc(/N=c2\[nH]c(=O)n(C[C@H](C)C(=O)O)c(=O)n2Cc2ccc(Cl)cc2)cc1` [Compound I-0754], 7.80.
For `CC[C@H](C)Oc1ccc(/N=c2\[nH]c(=O)n(C[C@H](C)C(=O)O)c(=O)n2Cc2ccc(Cl)cc2)cc1` [Compound I-0755], the pIC50 was 7.62.
Then `CO/N=C(\Cn1c(=O)[nH]/c(=N\c2ccc(OC(C)C)c(C)c2)n(Cc2ccc(Cl)cc2)c1=O)C(=O)O` [Compound I-0756], with 6.88; and `COC(=O)Cn1cccc(Cn2c(=O)[nH]/c(=N\c3ccc(OC(C)C)c(C)c3)n(Cc3ccc(Cl)cc3)c2=O)c1=O` [Compound I-0757], with 7.46; and `CC(C)Oc1ccc(/N=c2\[nH]c(=O)n(CCC(=O)NC#N)c(=O)n2Cc2ccc(Cl)cc2)cc1F` [Compound I-0758, 1-(4-chlorobenzyl)-6-(3-fluoro-4-isopropoxyphenylimino)-3-[2-(cyanocarbamoyl)ethyl]-1,3,5-triazinane-2,4-dion], with 7.72.
As for `Cc1cc(/N=c2\[nH]c(=O)n(Cc3cccn(CC(=O)O)c3=O)c(=O)n2Cc2ccc(Cl)cc2)ccc1OC(C)C` [Compound I-0760], the pIC50 is 7.43.
With `COC(=O)C[C@@H](C)Cn1c(=O)[nH]/c(=N\c2ccc(OC(C)C)c(C)c2)n(Cc2ccc(Cl)cc2)c1=O` [Compound I-0761] the figure was 7.82; with `Cc1cc(/N=c2\[nH]c(=O)n(-c3ccc(C(=O)O)cc3)c(=O)n2Cc2ccc(Cl)cc2)ccc1OC(C)C` [Compound I-0762], 7.09; with `COC(=O)[C@@H](C)Cn1c(=O)[nH]/c(=N\c2ccc(OC(C)C)c(Cl)c2)n(Cc2ccccc2)c1=O` [Compound I-0763], 7.10.
With `COC(=O)[C@@H](C)Cn1c(=O)[nH]/c(=N\c2ccc(OC(C)C)c(C)c2)n(Cc2ccccc2)c1=O` [Compound I-0764] the figure was 6.60; with `Cc1cc(/N=c2\[nH]c(=O)n(C[C@H](C)CC(=O)O)c(=O)n2Cc2ccc(Cl)cc2)ccc1OC(C)C` [Compound I-0765], 7.40.
Then `COC(=O)[C@@H](C)Cn1c(=O)[nH]/c(=N\c2ccc(CC#N)c(Cl)c2)n(Cc2ccc(Cl)cc2)c1=O` [Compound I-0766], with 6.36.
`COCCOc1ccc(/N=c2\[nH]c(=O)n(C[C@H](C)C(=O)OC)c(=O)n2Cc2ccc(Cl)cc2)cc1Cl` [Compound I-0767]: the pIC50 is 7.06.
As for `COC(=O)[C@@H](C)Cn1c(=O)[nH]/c(=N\c2ccc3c(c2)CCC3)n(Cc2ccc(Cl)cc2)c1=O` [Compound I-0769], the pIC50 was 6.68.
Then `COC(=O)[C@@H](C)Cn1c(=O)[nH]/c(=N\c2ccc3c(c2)CCO3)n(Cc2ccc(Cl)cc2)c1=O` [Compound I-0770], with 6.39; and `C[C@@H](Cn1c(=O)[nH]/c(=N\c2ccc3c(c2)CCC3)n(Cc2ccc(Cl)cc2)c1=O)C(=O)O` [Compound I-0772], with 6.32; and `C[C@@H](Cn1c(=O)[nH]/c(=N\c2ccc3c(c2)CCO3)n(Cc2ccc(Cl)cc2)c1=O)C(=O)O` [Compound I-0773], with 6.10.
Then `Cc1cc(/N=c2\[nH]c(=O)n([C@H]3CCOC3=O)c(=O)n2Cc2ccc(Cl)cc2)ccc1OC(C)C` [Compound I-0775], with 7.39; and `COC(=O)[C@@H](C)Cn1c(=O)[nH]/c(=N\c2cccc(C(C)C)c2)n(Cc2ccc(Cl)cc2)c1=O` [Compound I-0777], with 6.94.
With `CCOC(=O)C(CNc1ccc(OC(C)C)c(C)c1)Cn1c(=O)[nH]/c(=N\c2ccc(OC(C)C)c(C)c2)n(Cc2ccc(Cl)cc2)c1=O` (centres unmarked) [Compound I-0778] the figure was 7.08; with `C=C(Cn1c(=O)[nH]/c(=N\c2ccc(OC(C)C)c(C)c2)n(Cc2ccc(Cl)cc2)c1=O)C(=O)OCC` [Compound I-0779], 7.80.
In the case of `COC(=O)c1cccc(Cn2c(=O)[nH]/c(=N\c3ccc(OC(C)C)c(C)c3)n(Cc3ccc(Cl)cc3)c2=O)n1` [Compound I-0781], the pIC50 is 8.05.
Then `CC[C@@H](CC(=O)OC)n1c(=O)[nH]/c(=N\c2ccc(OC(C)C)c(C)c2)n(Cc2ccc(Cl)cc2)c1=O` [Compound I-0782], with 6.72; and `CC[C@H](CC(=O)OC)n1c(=O)[nH]/c(=N\c2ccc(OC(C)C)c(C)c2)n(Cc2ccc(Cl)cc2)c1=O` [Compound I-0783], with 7.19; and `CCOC(=O)c1cc(Cn2c(=O)[nH]/c(=N\c3ccc(OC(C)C)c(C)c3)n(Cc3ccc(Cl)cc3)c2=O)on1` [Compound I-0784], with 7.66.
With `CCOC(=O)c1nc(Cn2c(=O)[nH]/c(=N\c3ccc(OC(C)C)c(C)c3)n(Cc3ccc(Cl)cc3)c2=O)cs1` [Compound I-0785] the figure was 7.96; with `CNC(=O)CCCn1c(=O)[nH]/c(=N\c2ccc(OC(C)C)c(C)c2)n(Cc2ccc(Cl)cc2)c1=O` [Compound I-0786], 7.82; with `Cc1cc(/N=c2\[nH]c(=O)n(CCCC(=O)N3CCOCC3)c(=O)n2Cc2ccc(Cl)cc2)ccc1OC(C)C` [Compound I-0787], 7.62.
Then `Cc1cc(/N=c2\[nH]c(=O)n(CCCC(=O)NCCO)c(=O)n2Cc2ccc(Cl)cc2)ccc1OC(C)C` [Compound I-0788], with 7.49; and `COCCOc1ccc(/N=c2\[nH]c(=O)n(C[C@H](C)C(=O)O)c(=O)n2Cc2ccc(Cl)cc2)cc1Cl` [Compound I-0789], with 6.74.
On to `COC(=O)[C@@H](C)Cn1c(=O)[nH]/c(=N\c2ccc3nc(C)ccc3c2)n(Cc2ccc(Cl)cc2)c1=O` [Compound I-0790], for which the pIC50 is 7.89.
On to `COC(=O)[C@@H](C)Cn1c(=O)[nH]/c(=N\c2ccc3c(c2)CCCC3)n(Cc2ccc(Cl)cc2)c1=O` [Compound I-0791], for which the pIC50 was 6.58.
Consider `CC(C)c1cccc(/N=c2\[nH]c(=O)n(C[C@H](C)C(=O)O)c(=O)n2Cc2ccc(Cl)cc2)c1` [Compound I-0792], for which the pIC50 was 6.77.
With `CC(C)Oc1ccc(/N=c2\[nH]c(=O)n(C[C@H](C)C(=O)O)c(=O)n2Cc2ccccc2)cc1Cl` [Compound I-0794] the figure was 6.77; with `Cc1cc(/N=c2\[nH]c(=O)n(C[C@H](C)C(=O)O)c(=O)n2Cc2ccccc2)ccc1OC(C)C` [Compound I-0795], 6.14.

The record behind these values is patent US9718790B2, “Triazine derivative and pharmaceutical composition having an analgesic activity comprising the same” (SHIONOGI & CO., LTD., priority 2010, dated 2017).
